Laboratory results from patent US20100069409A1, “"NOVEL COMPOUNDS"” (GLAXO GROUP LIMITED, priority 2006, published 2010).

| melting point [°C] | SMILES |
| --- | --- |
| 144 to 147 | CSc1nc(-c2cc(C(=O)N(C)C)ccc2C)c2c(n1)N(c1c(F)cccc1F)C(=O)NC2 [Example 73, 3-[8-(2,6-difluorophenyl)-2-(methylthio)-7-oxo-5,6,7,8-tetrahydropyrimido[4,5-d]pyrimidin-4-yl]-N,N,4-trimethylbenzamide] |
| 214.2 to 217.5 | Cc1c(F)cc(C(=O)NC2CC2)cc1-c1nc(NC(CO)CO)nc2c1ccc(=O)n2-c1c(F)cccc1F [Example 49, N-cyclopropyl-3-(8-(2,6-difluorophenyl)-2-{[2-hydroxy-1-(hydroxymethyl)ethyl]amino}-7-oxo-7,8-dihydropyrido[2,3-d]pyrimidin-4-yl)-5-fluoro-4-methylbenzamide] |
